#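 Compound exposure: 48 hours, 5 concentrations, 96-well plates. Here, GI50 denotes the concentration required for 50% inhibition of growth. TGI denotes the concentration required for complete inhibition of growth.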
# How the values were obtained:
# Experiment in all cases: NCI anticancer screen, dose series, 48 h
# SN12C renal = tested on: SN12C renal
# MDA-MB-231 breast = tested on: MDA-MB-231 breast
# NCI/ADR-RES ovarian = tested on: NCI/ADR-RES ovarian
# A549 NSCLC = tested on: A549 NSCLC
# SK-MEL-2 melanoma = tested on: SK-MEL-2 melanoma
# NCI-H460 lung = tested on: NCI-H460 lung
# UACC-257 melanoma = tested on: UACC-257 melanoma
# ACHN renal = tested on: ACHN renal
# K-562 leukemia = tested on: K-562 leukemia
# PC-3 prostate = tested on: PC-3 prostate
# HOP-62 NSCLC = tested on: HOP-62 NSCLC
# LOX IMVI melanoma = tested on: LOX IMVI melanoma
# HCC-2998 colon = tested on: HCC-2998 colon
# EKVX NSCLC = tested on: EKVX NSCLC
# HT29 colon = tested on: HT29 colon
# SNB-19 CNS = tested on: SNB-19 CNS
# OVCAR-5 ovarian = tested on: OVCAR-5 ovarian
# 786-0 renal = tested on: 786-0 renal
# SW-620 colon = tested on: SW-620 colon
# SF-268 CNS = tested on: SF-268 CNS
# MCF7 breast = tested on: MCF7 breast
# SK-MEL-28 melanoma = tested on: SK-MEL-28 melanoma
# NCI-H522 lung = tested on: NCI-H522 lung
# BT-549 breast = tested on: BT-549 breast
# T-47D breast = tested on: T-47D breast
# OVCAR-8 ovarian = tested on: OVCAR-8 ovarian
# SF-539 CNS = tested on: SF-539 CNS
# M14 melanoma = tested on: M14 melanoma
# DU-145 prostate = tested on: DU-145 prostate
# TK-10 renal = tested on: TK-10 renal
# U251 CNS = tested on: U251 CNS
# HCT-116 colon = tested on: HCT-116 colon
# MDA-MB-435 = tested on: MDA-MB-435
# SF-295 CNS = tested on: SF-295 CNS
# CAKI-1 renal = tested on: CAKI-1 renal
# SK-OV-3 ovarian = tested on: SK-OV-3 ovarian
# HS 578T breast = tested on: HS 578T breast
# OVCAR-3 ovarian = tested on: OVCAR-3 ovarian
# UACC-62 melanoma = tested on: UACC-62 melanoma
# RPMI-8226 leukemia = tested on: RPMI-8226 leukemia
# NCI-H23 lung = tested on: NCI-H23 lung
# HCT-15 colon = tested on: HCT-15 colon
# CCRF-CEM leukemia = tested on: CCRF-CEM leukemia
# MOLT-4 leukemia = tested on: MOLT-4 leukemia
# HOP-92 NSCLC = tested on: HOP-92 NSCLC
# OVCAR-4 ovarian = tested on: OVCAR-4 ovarian
# IGROV1 ovarian = tested on: IGROV1 ovarian
# COLO 205 colon = tested on: COLO 205 colon
# SNB-75 CNS = tested on: SNB-75 CNS
# UO-31 renal = tested on: UO-31 renal
# SK-MEL-5 melanoma = tested on: SK-MEL-5 melanoma
# KM12 colon = tested on: KM12 colon
# RXF 393 renal = tested on: RXF 393 renal
# NCI-H226 lung = tested on: NCI-H226 lung
# SR leukemia = tested on: SR leukemia
# HL-60(TB) leukemia = tested on: HL-60(TB) leukemia
# MALME-3M melanoma = tested on: MALME-3M melanoma
smiles,measurement,setting,value
C=CCC(N[C@H](CO)c1ccccc1)c1cn(S(=O)(=O)c2ccc(C)cc2)c2ccccc12 (stereo not given in full),GI50,SN12C renal,16.9 µM
same,TGI,SN12C renal,32.2 µM
same,GI50,MDA-MB-231 breast,10.7 µM
same,TGI,MDA-MB-231 breast,32.3 µM
same,GI50,NCI/ADR-RES ovarian,18.9 µM
same,TGI,NCI/ADR-RES ovarian,46.2 µM
same,GI50,A549 NSCLC,12.7 µM
same,TGI,A549 NSCLC,32.4 µM
same,GI50,SK-MEL-2 melanoma,32.2 µM
same,TGI,SK-MEL-2 melanoma,> 100 µM
same,GI50,NCI-H460 lung,> 100 µM
same,TGI,NCI-H460 lung,> 100 µM
same,GI50,UACC-257 melanoma,10.7 µM
same,TGI,UACC-257 melanoma,26.7 µM
same,GI50,ACHN renal,18 µM
same,TGI,ACHN renal,45.2 µM
same,GI50,K-562 leukemia,2.72 µM
same,GI50,PC-3 prostate,17.8 µM
same,TGI,PC-3 prostate,77.1 µM
same,GI50,HOP-62 NSCLC,16.8 µM
same,TGI,HOP-62 NSCLC,33.5 µM
same,GI50,LOX IMVI melanoma,13.7 µM
same,TGI,LOX IMVI melanoma,27 µM
same,GI50,HCC-2998 colon,15.8 µM
same,TGI,HCC-2998 colon,33.4 µM
same,GI50,EKVX NSCLC,25.2 µM
same,TGI,EKVX NSCLC,74.8 µM
same,GI50,HT29 colon,31.2 µM
same,TGI,HT29 colon,> 100 µM
same,GI50,SNB-19 CNS,60.8 µM
same,TGI,SNB-19 CNS,> 100 µM
same,GI50,OVCAR-5 ovarian,> 100 µM
same,TGI,OVCAR-5 ovarian,> 100 µM
same,GI50,786-0 renal,> 100 µM
same,TGI,786-0 renal,> 100 µM
same,GI50,SW-620 colon,31.8 µM
same,TGI,SW-620 colon,85.9 µM
same,GI50,SF-268 CNS,> 100 µM
same,TGI,SF-268 CNS,> 100 µM
same,GI50,MCF7 breast,> 100 µM
same,TGI,MCF7 breast,> 100 µM
same,GI50,SK-MEL-28 melanoma,41.6 µM
same,TGI,SK-MEL-28 melanoma,> 100 µM
same,GI50,NCI-H522 lung,18.6 µM
same,TGI,NCI-H522 lung,47.7 µM
same,GI50,BT-549 breast,20.5 µM
same,TGI,BT-549 breast,46.5 µM
same,GI50,T-47D breast,55.9 µM
same,TGI,T-47D breast,> 100 µM
same,GI50,OVCAR-8 ovarian,10.8 µM
same,TGI,OVCAR-8 ovarian,29.5 µM
same,GI50,SF-539 CNS,21.4 µM
same,TGI,SF-539 CNS,38.2 µM
same,GI50,M14 melanoma,14.5 µM
same,TGI,M14 melanoma,31.5 µM
same,GI50,DU-145 prostate,26.7 µM
same,TGI,DU-145 prostate,67.2 µM
same,GI50,TK-10 renal,3.62 µM
same,TGI,TK-10 renal,18 µM
same,GI50,U251 CNS,17.6 µM
same,TGI,U251 CNS,36 µM
same,GI50,HCT-116 colon,17 µM
same,TGI,HCT-116 colon,31.6 µM
same,GI50,MDA-MB-435,19 µM
same,TGI,MDA-MB-435,46.8 µM
same,GI50,SF-295 CNS,8.19 µM
same,TGI,SF-295 CNS,34.8 µM
same,GI50,CAKI-1 renal,11.5 µM
same,TGI,CAKI-1 renal,37.3 µM
same,GI50,SK-OV-3 ovarian,59.7 µM
same,TGI,SK-OV-3 ovarian,> 100 µM
same,GI50,HS 578T breast,24.3 µM
same,TGI,HS 578T breast,60.5 µM
same,GI50,OVCAR-3 ovarian,> 100 µM
same,TGI,OVCAR-3 ovarian,> 100 µM
same,GI50,UACC-62 melanoma,15.1 µM
same,TGI,UACC-62 melanoma,29.7 µM
same,GI50,RPMI-8226 leukemia,6.85 µM
same,TGI,RPMI-8226 leukemia,46.2 µM
same,GI50,NCI-H23 lung,20.3 µM
same,TGI,NCI-H23 lung,43.5 µM
same,GI50,HCT-15 colon,23.7 µM
same,TGI,HCT-15 colon,60.2 µM
same,GI50,CCRF-CEM leukemia,22.6 µM
same,TGI,CCRF-CEM leukemia,76.7 µM
same,GI50,MOLT-4 leukemia,15.2 µM
same,TGI,MOLT-4 leukemia,41.4 µM
same,GI50,HOP-92 NSCLC,24.9 µM
same,TGI,HOP-92 NSCLC,> 100 µM
same,GI50,OVCAR-4 ovarian,73.7 µM
same,TGI,OVCAR-4 ovarian,> 100 µM
same,GI50,IGROV1 ovarian,14.6 µM
same,TGI,IGROV1 ovarian,47.3 µM
same,GI50,COLO 205 colon,35.3 µM
same,TGI,COLO 205 colon,> 100 µM
same,GI50,SNB-75 CNS,66.2 µM
same,TGI,SNB-75 CNS,> 100 µM
same,GI50,UO-31 renal,94.8 µM
same,TGI,UO-31 renal,> 100 µM
same,GI50,SK-MEL-5 melanoma,26.1 µM
same,TGI,SK-MEL-5 melanoma,43.8 µM
same,GI50,KM12 colon,19.8 µM
same,TGI,KM12 colon,68.4 µM
O=[N+]([O-])c1ccc(/C=C(/c2ccc([N+](=O)[O-])o2)S(=O)(=O)c2ccccc2)o1,TGI,MDA-MB-231 breast,16.3 µM
same,TGI,NCI/ADR-RES ovarian,39.1 µM
same,TGI,A549 NSCLC,38.2 µM
same,TGI,SK-MEL-2 melanoma,35.8 µM
same,TGI,NCI-H460 lung,60.1 µM
same,TGI,UACC-257 melanoma,3.66 µM
same,TGI,RXF 393 renal,> 100 µM
same,TGI,ACHN renal,8.69 µM
same,TGI,K-562 leukemia,10.2 µM
same,TGI,PC-3 prostate,30.1 µM
same,TGI,HOP-62 NSCLC,38.3 µM
same,TGI,EKVX NSCLC,22.8 µM
same,TGI,HT29 colon,13.6 µM
same,TGI,SNB-19 CNS,35.7 µM
same,TGI,OVCAR-5 ovarian,33.9 µM
same,TGI,786-0 renal,14.7 µM
same,TGI,SW-620 colon,5.55 µM
same,TGI,SF-268 CNS,32.4 µM
same,TGI,MCF7 breast,72.7 µM
same,TGI,SK-MEL-28 melanoma,33.6 µM
same,TGI,NCI-H522 lung,4.21 µM
same,TGI,NCI-H226 lung,3.65 µM
same,TGI,BT-549 breast,36.2 µM
same,TGI,T-47D breast,> 100 µM
same,TGI,OVCAR-8 ovarian,18.3 µM
same,TGI,SF-539 CNS,37.7 µM
same,TGI,M14 melanoma,25.5 µM
same,TGI,DU-145 prostate,28 µM
same,TGI,TK-10 renal,15.2 µM
same,TGI,U251 CNS,29.4 µM
same,TGI,HCT-116 colon,3.08 µM
same,TGI,MDA-MB-435,29 µM
same,TGI,SR leukemia,2.6 µM
same,TGI,HL-60(TB) leukemia,8.67 µM
same,TGI,SF-295 CNS,34.2 µM
same,TGI,CAKI-1 renal,33 µM
same,TGI,SK-OV-3 ovarian,90.8 µM
same,TGI,HS 578T breast,44.3 µM
same,TGI,OVCAR-3 ovarian,29 µM
same,TGI,UACC-62 melanoma,19.1 µM
same,TGI,RPMI-8226 leukemia,0.483 µM
same,TGI,NCI-H23 lung,38 µM
same,TGI,HCT-15 colon,26 µM
same,TGI,HOP-92 NSCLC,27.8 µM
same,TGI,OVCAR-4 ovarian,15.5 µM
same,TGI,IGROV1 ovarian,30.6 µM
same,TGI,COLO 205 colon,4.67 µM
same,TGI,MALME-3M melanoma,7.45 µM
same,TGI,SNB-75 CNS,33.7 µM
same,TGI,UO-31 renal,16.3 µM
same,TGI,SK-MEL-5 melanoma,24.4 µM
same,TGI,KM12 colon,32.6 µM

# From PubChem BioAssay (NCI)
